Laboratory results published in patent publication US11952328B2, “Selective ship inhibitors for treating disease” (THE RESEARCH FOUNDATION FOR THE STATE UNIVERSITY OF NEW YORK, priority 2018, dated 2024).

Legend:
T and NK cells = assay: Continuous dosing of patients with selective SHIP1 inhibitor; assay type: in vivo; conditions: administration periods of 3, 4, 5, 6, 7 or more days
Method: An effective dose of selective SHIP1 inhibitor (e.g. K223) is administered by any appropriate means (e.g., orally, intravenously, intraperitoneally) to a patient for administration periods of 3, 4, 5, 6, 7 or more days.

SHIP1 = biological target: T1, SHIP1 (Homo sapiens, UniProt Q92835); assay: Malachite Green phosphatase assay; assay type: biochemical; conditions: at 1 nm and 500 μM
T1 sequence (Q92835 1-1189): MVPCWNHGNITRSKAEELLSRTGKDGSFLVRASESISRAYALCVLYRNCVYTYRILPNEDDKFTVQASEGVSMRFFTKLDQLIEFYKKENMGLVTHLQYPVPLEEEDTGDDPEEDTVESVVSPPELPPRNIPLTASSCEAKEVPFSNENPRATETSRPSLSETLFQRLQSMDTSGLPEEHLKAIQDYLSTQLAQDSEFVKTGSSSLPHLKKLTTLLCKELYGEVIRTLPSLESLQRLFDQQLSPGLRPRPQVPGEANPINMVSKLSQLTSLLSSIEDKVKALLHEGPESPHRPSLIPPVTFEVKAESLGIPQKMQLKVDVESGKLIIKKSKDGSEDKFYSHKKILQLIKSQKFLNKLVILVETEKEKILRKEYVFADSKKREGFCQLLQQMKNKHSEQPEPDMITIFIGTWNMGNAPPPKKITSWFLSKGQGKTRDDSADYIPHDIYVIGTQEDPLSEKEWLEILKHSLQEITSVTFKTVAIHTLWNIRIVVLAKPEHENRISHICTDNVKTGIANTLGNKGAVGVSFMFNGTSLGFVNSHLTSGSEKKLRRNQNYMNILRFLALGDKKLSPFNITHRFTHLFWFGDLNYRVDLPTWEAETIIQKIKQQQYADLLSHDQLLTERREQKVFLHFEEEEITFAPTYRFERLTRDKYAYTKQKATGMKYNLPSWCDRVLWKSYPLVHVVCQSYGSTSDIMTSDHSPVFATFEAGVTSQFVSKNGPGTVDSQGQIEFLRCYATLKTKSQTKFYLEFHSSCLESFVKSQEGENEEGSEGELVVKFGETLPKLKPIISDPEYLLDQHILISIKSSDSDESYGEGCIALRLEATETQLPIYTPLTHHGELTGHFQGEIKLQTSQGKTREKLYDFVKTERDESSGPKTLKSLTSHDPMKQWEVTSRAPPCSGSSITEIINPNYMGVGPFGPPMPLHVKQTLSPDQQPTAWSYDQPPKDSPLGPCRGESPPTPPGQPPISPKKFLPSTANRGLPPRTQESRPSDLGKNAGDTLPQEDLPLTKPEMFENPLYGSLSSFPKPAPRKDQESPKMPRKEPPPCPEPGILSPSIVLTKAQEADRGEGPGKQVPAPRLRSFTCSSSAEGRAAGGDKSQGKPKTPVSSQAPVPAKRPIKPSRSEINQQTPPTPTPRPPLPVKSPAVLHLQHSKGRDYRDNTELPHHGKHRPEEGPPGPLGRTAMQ
Description: FIGS. 2A-2C show the results of a SHIP1 malachite phosphatase assay. […] This predicts that the sulfonic acid is acting as a phosphate mimic, binding in active site where the 5′-phosphate of PIP3 binds.
K223 is an analog of EDANS, with the corresponding sulfonyl chloride of K223 being used as a donor for developing FRET-based nucleic acid probes and protease substrates. The docking pose of K223 with the model of the SHIP1 active site predicted that the sulfonic acid acts as a phosphate mimic, binding in the active site where the 5′-phosphate of PIP3 binds (FIG. 2B). The origin of the SHIP1 selectivity for K223 was not clear, however the nonpolar naphthalene core rests near K682 in the model of SHIP1, and this residue is a more polar arginine in SHIP2.

inhibition of SHIP1 (SHIP1): potent and selective inhibition of SHIP1
SMILES: NCCNc1cccc2cccc(S(=O)(=O)O)c12 [Compound K223, 8-((2-aminoethyl)amino)naphthalene-1-sulfonic acid]
responsiveness of activated T and NK cells (T and NK cells): hyporesponsiveness
